33 compounds from patent US12091411B2, “IRAK degraders and uses thereof” (Kymera Therapeutics, Inc., priority 2022, dated 2024) can be followed below.

Structures are written as SMILES. Where two headings read alike, the source gives them in different places.

The test deals with T1, IRAK4 (Homo sapiens, UniProt Q9NWZ3).
T1 construct: Degradation of IRAK4 in OCI-LY10 was quantitatively measured using Meso Scale Discovery technology; endogenous in cells; host or cells: OCI-LY10
T1 sequence (Q9NWZ3 1-460): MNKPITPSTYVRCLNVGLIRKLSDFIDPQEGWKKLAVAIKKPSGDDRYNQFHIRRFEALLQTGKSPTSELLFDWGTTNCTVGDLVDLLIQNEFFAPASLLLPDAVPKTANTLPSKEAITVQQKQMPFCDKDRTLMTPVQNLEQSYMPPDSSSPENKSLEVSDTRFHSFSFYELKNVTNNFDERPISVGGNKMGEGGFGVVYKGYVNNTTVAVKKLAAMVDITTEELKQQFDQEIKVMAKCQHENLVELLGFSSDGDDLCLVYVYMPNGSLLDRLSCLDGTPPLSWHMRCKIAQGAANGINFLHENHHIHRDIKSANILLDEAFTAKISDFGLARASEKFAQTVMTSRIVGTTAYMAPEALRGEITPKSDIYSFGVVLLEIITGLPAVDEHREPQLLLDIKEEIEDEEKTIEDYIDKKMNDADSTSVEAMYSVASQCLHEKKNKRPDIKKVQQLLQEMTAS
Description: IRAK4 MSD Degradation in OCI-LY10. The class given is cell-based. The conditions noted are these: OCI-LY10 cells, MSD. The procedure, abridged:
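OCI-LY10 cells exposed to 8-point 1:3 compound series (top 1 to 10 μM) for 4 to 24 h at 37 °C, 5% CO2. Lysate IRAK4 quantified by MSD sandwich immunoassay. DC50 from three-parameter logistic fit, binned A (<0.01 μM) to D (>0.2 μM or not tested).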

The mark [1] stands for this setting: 4 hrs incubation, read-out: IRAK4 degradation in OCI-LY10 at 4 hrs: DC50.
The mark [2] stands for this setting: 24 hrs incubation, read-out: IRAK4 degradation in OCI-LY10 at 24 hrs: DC50.

The DC50 is the concentration giving 50% degradation. With `Cn1c(=O)n(C2CCC(=O)NC2=O)c2cccc(C#CCN3CC4CC(C3)N4C[C@H]3CC[C@H](n4cc(NC(=O)c5cnn6ccc(N7C[C@H]8C[C@@H]7CO8)nc56)c(C(F)F)n4)CC3)c21` (stereo partly drawn) [I-344], the DC50 was greater than 200 nM under setting [1] and greater than 200 nM under setting [2].
With `Cn1c(=O)n(C2CCC(=O)NC2=O)c2cccc(C#CCN3C4CC3CN(C[C@H]3CC[C@H](n5cc(NC(=O)c6cnn7ccc(N8C[C@H]9C[C@@H]8CO9)nc67)c(C(F)F)n5)CC3)C4)c21` (stereo partly drawn) [I-345], the DC50 under setting [1] was in the range of 10 to 100 nM and the DC50 under setting [2] is greater than 200 nM.
The like results for `Cn1c(=O)n(C2CCC(=O)NC2=O)c2cccc(C#CCN3CC4COCC(C3)N4C[C@H]3CC[C@H](n4cc(NC(=O)c5cnn6ccc(N7C[C@H]8C[C@@H]7CO8)nc56)c(C(F)F)n4)CC3)c21` (stereo partly drawn) [I-348] were, in that order, 100 to 200 nM and greater than 200 nM.
With `Cn1c(=O)n(C2CCC(=O)NC2=O)c2cccc(C#CCN3C4COCC3CN(C[C@H]3CC[C@H](n5cc(NC(=O)c6cnn7ccc(N8C[C@H]9C[C@@H]8CO9)nc67)c(C(F)F)n5)CC3)C4)c21` (stereo partly drawn) [I-349], the DC50 under setting [1] lay in the range of 10 to 100 nM and the DC50 under setting [2] was greater than 200 nM.
With `Cn1c(=O)n(C2CCC(=O)NC2=O)c2cccc(C#CCN3CCN(C[C@H]4CC[C@H](n5cc(NC(=O)c6cnn7ccc(C8COC8)nc67)c(C(F)F)n5)CC4)CC3)c21` (stereo partly drawn) [I-351], the DC50 is greater than 200 nM under setting [1] and greater than 200 nM under setting [2].
As to `Cn1c(=O)n(C2CCC(=O)NC2=O)c2cccc(C#CCN3CCN(C[C@H]4CC[C@H](n5cc(NC(=O)c6cnn7ccc(N8CC(C)(C)OC(C)(C)C8)nc67)c(C(F)F)n5)CC4)CC3)c21` (stereo partly drawn) [I-352], the DC50 runs as follows: under setting [1], 10 to 100 nM; under setting [2], greater than 200 nM.
For `Cn1c(=O)n(C2CCC(=O)NC2=O)c2cccc(C#CCN3CCN(C[C@H]4CC[C@H](n5cc(NC(=O)c6cnn7ccc([C@@H]8CCOC8)nc67)c(C(F)F)n5)CC4)CC3)c21` (stereo partly drawn) [I-353], the DC50 runs as follows: under setting [1], greater than 200 nM; under setting [2], greater than 200 nM.
Turning to `Cn1c(=O)n(C2CCC(=O)NC2=O)c2cccc(C#CCN3CCN(C[C@H]4CC[C@H](n5cc(NC(=O)c6cnn7ccc([C@H]8CCOC8)nc67)c(C(F)F)n5)CC4)CC3)c21` (stereo partly drawn) [I-354], the DC50 is greater than 200 nM under setting [1] and greater than 200 nM under setting [2].
Consider `CN(C[C@H]1CC[C@H](n2cc(NC(=O)c3cnn4ccc(N5CC(C)(C)OC(C)(C)C5)nc34)c(C(F)F)n2)CC1)C1CCN(c2cccc3c2n(C)c(=O)n3C2CCC(=O)NC2=O)CC1` (stereo partly drawn) [I-355], for which the DC50 is 10 to 100 nM under setting [1] and greater than 200 nM under setting [2].
Consider `CN(C[C@H]1CC[C@H](n2cc(NC(=O)c3cnn4ccc(N5CCOC6(CC6)C5)nc34)c(C(F)F)n2)CC1)C1CCN(c2cccc3c2n(C)c(=O)n3C2CCC(=O)NC2=O)CC1` (stereo partly drawn) [I-356], for which the half-maximal degradation concentration (DC50) is greater than 200 nM under setting [1] and less than 10 nM under setting [2].
Regarding `CN(C[C@H]1CC[C@H](n2cc(NC(=O)c3cnn4ccc(N5CCOC6(CCC6)C5)nc34)c(C(F)F)n2)CC1)C1CCN(c2cccc3c2n(C)c(=O)n3C2CCC(=O)NC2=O)CC1` (stereo partly drawn) [I-357], the DC50 reads like this: under setting [1], greater than 200 nM; under setting [2], less than 10 nM.
The like results for `CC1CN(c2ccn3ncc(C(=O)Nc4cn([C@H]5CC[C@H](CN(C)C6CCN(c7cccc8c7n(C)c(=O)n8C7CCC(=O)NC7=O)CC6)CC5)nc4C(F)F)c3n2)CCO1` (stereo partly drawn) [I-358] were, in that order, greater than 200 nM and greater than 200 nM.
In the same order, the values of `CC1CN(c2ccn3ncc(C(=O)Nc4cn([C@H]5CC[C@H](CN(C)C6CCN(c7cccc8c7n(C)c(=O)n8C7CCC(=O)NC7=O)CC6)CC5)nc4C(F)F)c3n2)CC(C)O1` (stereo partly drawn) [I-359] are greater than 200 nM and greater than 200 nM.
The like results for `CN(C[C@H]1CC[C@H](n2cc(NC(=O)c3cnn4ccc(N5C[C@H]6CC[C@@H](C5)O6)nc34)c(C(F)F)n2)CC1)C1CCN(c2cccc3c2n(C)c(=O)n3C2CCC(=O)NC2=O)CC1` (stereo partly drawn) [I-360] were, in that order, greater than 200 nM and less than 10 nM.
With `CN(C[C@H]1CC[C@H](n2cc(NC(=O)c3cnn4ccc(C5COC5)nc34)c(C(F)F)n2)CC1)C1CCN(c2cccc3c2n(C)c(=O)n3C2CCC(=O)NC2=O)CC1` (stereo partly drawn) [I-361], the DC50 was greater than 200 nM under setting [1] and greater than 200 nM under setting [2].
Take `Cn1c(=O)n(C2CCC(=O)NC2=O)c2cccc([C@H]3CC[C@H](CN4CCN(C[C@H]5CC[C@H](n6cc(NC(=O)c7cnn8ccc(N9C[C@H]%10C[C@@H]9CO%10)nc78)c(C(F)F)n6)CC5)CC4)CC3)c21` (stereo partly drawn) [I-362]: the DC50 under setting [1] is less than 10 nM and the DC50 under setting [2] was greater than 200 nM.
The like results for `Cn1c(=O)n(C2CCC(=O)NC2=O)c2cccc(N3CC[C@@H](CN4CCN(C[C@H]5CC[C@H](n6cc(NC(=O)c7cnn8ccc(N9C[C@H]%10C[C@@H]9CO%10)nc78)c(C(F)F)n6)CC5)CC4)C3)c21` (stereo partly drawn) [I-363] were, in that order, greater than 200 nM and greater than 200 nM.
Consider `Cn1c(=O)n(C2CCC(=O)NC2=O)c2cccc(N3CC[C@H](CN4CCN(C[C@H]5CC[C@H](n6cc(NC(=O)c7cnn8ccc(N9C[C@H]%10C[C@@H]9CO%10)nc78)c(C(F)F)n6)CC5)CC4)C3)c21` (stereo partly drawn) [I-364], for which the DC50 runs as follows: under setting [1], greater than 200 nM; under setting [2], greater than 200 nM.
Regarding `Cn1c(=O)n(C2CCC(=O)NC2=O)c2cccc(N3CCN([C@@H]4CCN(C[C@H]5CC[C@H](n6cc(NC(=O)c7cnn8ccc(N9C[C@H]%10C[C@@H]9CO%10)nc78)c(C(F)F)n6)CC5)CC4(F)F)CC3)c21` (stereo partly drawn) [I-365], the DC50 reads like this: under setting [1], greater than 200 nM; under setting [2], greater than 200 nM.
`Cn1c(=O)n(C2CCC(=O)NC2=O)c2cccc(N3CCN([C@H]4CCN(C[C@H]5CC[C@H](n6cc(NC(=O)c7cnn8ccc(N9C[C@H]%10C[C@@H]9CO%10)nc78)c(C(F)F)n6)CC5)CC4(F)F)CC3)c21` (stereo partly drawn) [I-366]: the DC50 runs as follows: under setting [1], greater than 200 nM; under setting [2], greater than 200 nM.
For the compound `Cn1c(=O)n(C2CCC(=O)NC2=O)c2cccc(N3CCC(N4CCN(C[C@H]5CC[C@H](n6cc(NC(=O)c7cnn8ccc(N9C[C@H]%10C[C@@H]9CO%10)nc78)c(C(F)F)n6)CC5)CC4)CC3)c21` (stereo partly drawn) [I-367], the DC50 runs as follows: under setting [1], greater than 200 nM; under setting [2], greater than 200 nM.
In the case of `Cn1c(=O)n(C2CCC(=O)NC2=O)c2cccc(N3CCC(N(C[C@H]4CC[C@H](n5cc(NC(=O)c6cnn7cccnc67)c(C(F)F)n5)CC4)C(F)(F)F)CC3)c21` (stereo partly drawn) [I-368], the DC50 under setting [1] is greater than 200 nM and the DC50 under setting [2] is greater than 200 nM.
As to `Cn1c(=O)n(C2CCC(=O)NC2=O)c2cccc(C#CCN3CCN(Cc4ccc(-n5cc(NC(=O)c6cnn7ccc(N8C[C@H]9C[C@@H]8CO9)nc67)c(C(F)F)n5)cc4)CC3)c21` (stereo partly drawn) [I-369], the DC50 was less than 10 nM under setting [1] and greater than 200 nM under setting [2].
The like results for `Cn1c(=O)n(C2CCC(=O)NC2=O)c2cccc(C#CCOC3CCN(Cc4ccc(-n5cc(NC(=O)c6cnn7ccc(N8C[C@H]9C[C@@H]8CO9)nc67)c(C(F)F)n5)cc4)CC3)c21` (stereo partly drawn) [I-370] were, in that order, 10 to 100 nM and greater than 200 nM.
For the compound `Cn1c(=O)n(C2CCC(=O)NC2=O)c2cccc(C#CCOc3ccc(CN4CCC(n5cc(NC(=O)c6cnn7ccc(N8CC9C[C@@H]8CO9)nc67)c(C(F)F)n5)CC4)cc3)c21` (stereo partly drawn) [I-371], the DC50 is, setting by setting: under setting [1], greater than 200 nM; under setting [2], greater than 200 nM.
With `Cn1c(=O)n(C2CCC(=O)NC2=O)c2cccc(C#CCc3ccc(CN4CCC(n5cc(NC(=O)c6cnn7ccc(N8CC9C[C@@H]8CO9)nc67)c(C(F)F)n5)CC4)cc3)c21` (stereo partly drawn) [I-372], the DC50 runs as follows: under setting [1], greater than 200 nM; under setting [2], greater than 200 nM.
As for `CN(CC1CCN(c2cccc3c2n(C)c(=O)n3C2CCC(=O)NC2=O)CC1)c1ccc(-n2cc(NC(=O)c3cnn4cccnc34)c(C(F)F)n2)cc1` (stereo not drawn) [I-373], the DC50 was greater than 200 nM under setting [1] and greater than 200 nM under setting [2].
Regarding `Cn1c(=O)n(C2CCC(=O)NC2=O)c2cccc(C#CCC3CCN(C[C@H]4CC[C@H](n5cc(NC(=O)c6cnn7ccc(N8C[C@H]9C[C@@H]8CO9)nc67)c(C(F)F)n5)CC4)CC3(F)F)c21` (stereo partly drawn) [I-374], the DC50 under setting [1] lay within 10 to 100 nM and the DC50 under setting [2] was greater than 200 nM.
As to `Cn1c(=O)n(C2CCC(=O)NC2=O)c2cccc(C#CCN3CCC(C[C@H]4CC[C@H](n5cc(NC(=O)c6cnn7ccc(N8C[C@H]9C[C@@H]8CO9)nc67)c(C(F)F)n5)CC4)C(F)(F)C3)c21` (stereo partly drawn) [I-375], the DC50 is greater than 200 nM under setting [1] and greater than 200 nM under setting [2].
Turning to `CN(C[C@H]1CC[C@H](n2cc(NC(=O)c3cnn4cccnc34)c(C(F)F)n2)CC1)C1CCN(c2cccc3c2n(C)c(=O)n3C2CCC(=O)NC2=O)CC1(F)F` (stereo partly drawn) [I-376], the DC50 is greater than 200 nM under setting [1] and greater than 200 nM under setting [2].
Take `CN(Cc1ccc(-n2cc(NC(=O)c3cnn4cccnc34)c(C(F)F)n2)cc1)C1CCN(c2cccc3c2n(C)c(=O)n3C2CCC(=O)NC2=O)CC1(F)F` (stereo not drawn) [I-377]: the DC50 under setting [1] was greater than 200 nM and the DC50 under setting [2] is greater than 200 nM.
As to `CN(C[C@H]1CC[C@H](n2cc(NC(=O)c3cnn4cccnc34)c(C(F)F)n2)CC1)c1ccc(-c2cccc3c2n(C)c(=O)n3C2CCC(=O)NC2=O)cc1` (stereo partly drawn) [I-378], the DC50 reads like this: under setting [1], greater than 200 nM; under setting [2], greater than 200 nM.
As for `Cn1c(=O)n(C2CCC(=O)NC2=O)c2cccc(C#CC[C@H]3CN(CC4CCC(n5cc(NC(=O)c6cnn7ccc(N8C[C@H]9C[C@@H]8CO9)nc67)c(C(F)F)n5)CC4)CCO3)c21` (stereo partly drawn) [I-379], the DC50 by setting is: under setting [1], greater than 200 nM; under setting [2], greater than 200 nM.
